Test results as given in patent US12473289B2, “Heterocyclic compounds as delta-5 desaturase inhibitors and methods of use” (Amgen Inc., priority 2019, dated 2025).

These compounds were tested against Delta-5-Desaturase (D5D) (Homo sapiens (Human), UniProt O60427) (assay: In vitro measurement of Delta-5-Desaturase inhibitory activity using DGLA-CoA and Arachidonyl-CoA mass spectrometric assays). Conditions: membrane preparations of D5D-overexpressing HEK293 6E cells; averaged over at least two independent runs.
Delta-5-Desaturase (D5D), sequence (O60427 whole entry, species assumed): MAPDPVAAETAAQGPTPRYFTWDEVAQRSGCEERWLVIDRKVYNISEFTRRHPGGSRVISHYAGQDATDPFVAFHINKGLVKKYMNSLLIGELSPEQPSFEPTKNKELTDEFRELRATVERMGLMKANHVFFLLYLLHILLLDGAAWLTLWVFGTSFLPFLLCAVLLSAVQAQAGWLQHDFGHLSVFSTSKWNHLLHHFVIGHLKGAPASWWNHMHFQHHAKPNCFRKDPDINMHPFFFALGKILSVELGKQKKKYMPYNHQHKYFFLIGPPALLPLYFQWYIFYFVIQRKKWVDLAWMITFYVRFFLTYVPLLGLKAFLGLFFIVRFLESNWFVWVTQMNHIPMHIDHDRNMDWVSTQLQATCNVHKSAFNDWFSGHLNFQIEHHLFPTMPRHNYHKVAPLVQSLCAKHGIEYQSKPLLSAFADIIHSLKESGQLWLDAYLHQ
Assay type: biochemical
Experimental: In vitro Measurement of Delta-5-Desaturase Inhibitory Activity using DGLA-CoA and Arachidonyl-CoA Mass Spectrometric Assays
Membrane preparations of D5D-overexpressing HEK293 6E cells were prepared in which the total protein concentration was 5.6 mg/mL. Stock D5D membrane preparations were diluted in D5D assay buffer (25 mM 2-amino-2-(hydroxymethyl)-1,3-propanediol, pH 7.5 containing 10 mM MgCl2, 1 mM octyl glucoside (SigmaAldrich 0-8001), 1 mM tris(2-carboxyethyl)phosphine hydrochloride (SigmaAldrich 646547)) to a final D5D membrane concentration of 10 μg/mL in an assay plate containing serially diluted test compounds. To 15 μL of this D5D preparation was added 15 μL of a substrate solution (0.25 mM NADH (nicotinamide adenine dinucleotide, Roche Diag. 10107735001), 0.25 mM adenosine triphosphate (SigmaAldrich A-3377), 0.05 mM coenzyme A hydrate (SigmaAldrich C-4282), and 0.01 mM DGLA (dihomo-g-linolenic acid, Sigma E-4504) in the same D5D assay buffer. After one-hour incubation at ambient temperature acetonitrile (30 μL) was added to quench the reaction and plates were centrifuged for 10 min @3,000 rpm. Mass spectrometric analysis involved a Rapidfire 360 SPE system coupled to an ABSciex API4000 Triple Quadrupole mass spectrometer using a C18 SPE cartridge (G9203-80105) with ionization in negative mode (solvent A=100% water; solvent B=100% acetonitrile, each solvent containing 5 mM ammonium acetate). DGLA-CoA and Arachidonyl-CoA were detected by multiple reaction monitoring (MRM) of the doubly charged parent ions at m/z 526.6 and 525.6, respectively.
Sx is value from unknown sample, So is value from DMSO alone and Sc is value from no enzyme well. For CRC analysis, the % of inhibitions were analyzed with 4 Parameter Logistic Model or Sigmoidal Dose-Response Model using XLfit (IDBS, Guilford, UK). The potency of the test item was expressed as IC50 nM, corresponding to the test item concentration able to inhibit the 50% of the enzyme maximal response. IC50 values were averaged values determined by at least two independent runs.
This assay may be used to test any of the compounds described herein to assess and characterize a compound's ability to inhibit D5D.

Going from `COc1ccn2c(=O)c(-c3cnn(CC4CC4(F)F)c3)c(C(F)(F)F)nc2c1` (racemic) [Example 39-42, 3-{1-[(2,2-difluorocyclopropyl)methyl]-1H-pyrazol-4-yl}-8-methoxy-2-(trifluoromethyl)-4H-pyrido[1,2-a]pyrimidin-4-one] to `COc1cc2nc(C(F)(F)F)c(-c3cnn(CC4CC4(F)F)c3)c(=O)n2cc1F` (racemic) [Example 39-59, 3-{1-[(2,2-difluorocyclopropyl)methyl]-1H-pyrazol-4-yl}-7-fluoro-8-methoxy-2-(trifluoromethyl)-4H-pyrido[1,2-a]pyrimidin-4-one], the IC50 falls from 11.4 nM to 5 nM (2.3-fold).

Compared with `COc1ccn2c(=O)c(-c3ccc(OC[C@@H]4CC4(F)F)cc3)c(C(F)(F)F)nc2c1` (single isomer, unassigned) [Example 1-84], `COc1ccn2c(=O)c(-c3ccc(OCCF)cc3)c(C(F)(F)F)nc2c1` [Example 1-11, 3-(4-(2-fluoroethoxy)phenyl)-8-methoxy-2-(trifluoromethyl)-4H-pyrido[1,2-a]pyrimidin-4-one] is 9.7-fold higher in IC50: 2.7 nM for the first, 26.1 nM for the second.

Compared with `COc1ccn2c(=O)c(-c3ccc(CCC#N)cc3)c(C(F)(F)F)nc2c1` [Example 1-1, 3-(4-(8-Methoxy-4-oxo-2-(trifluoromethyl)-4H-pyrido[1,2-a]pyrimidin-3-yl)phenyl)propanenitrile], `COc1ccn2c(=O)c(-c3ccc(CC#N)cc3)c(C(F)(F)F)nc2c1` [Example 1-2, (4-(8-methoxy-4-oxo-2-(trifluoromethyl)-4H-pyrido[1,2-a]pyrimidin-3-yl)phenyl)acetonitrile] is 1.5-fold higher in IC50: 197 nM for the first, 305 nM for the second.

First: COc1ccn2c(=O)c(-c3ccn(-c4ccccc4)n3)c(C(F)(F)F)nc2c1 [Example 1-3, 8-methoxy-3-(1-phenyl-1H-pyrazol-3-yl)-2-(trifluoromethyl)-4H-pyrido[1,2-a]pyrimidin-4-one]
Second: COc1ccn2c(=O)c(-c3cnn(-c4ccccc4)c3)c(C(F)(F)F)nc2c1 [Example 1-47, 8-methoxy-3-(1-phenyl-1H-pyrazol-4-yl)-2-(trifluoromethyl)-4H-pyrido[1,2-a]pyrimidin-4-one]
The IC50 of the first is 69-fold higher: 371 nM for the first, 5.4 nM for the second.

Going from `COc1ccn2c(=O)c(-c3cc(-c4ccccc4)no3)c(C(F)(F)F)nc2c1` [Example 1-5, 8-methoxy-3-(3-phenyl-1,2-oxazol-5-yl)-2-(trifluoromethyl)-4H-pyrido[1,2-a]pyrimidin-4-one] to `COc1ccn2c(=O)c(-c3cnc(-c4ccccc4)o3)c(C(F)(F)F)nc2c1` [Example 1-6, 8-methoxy-3-(2-phenyl-1,3-oxazol-5-yl)-2-(trifluoromethyl)-4H-pyrido[1,2-a]pyrimidin-4-one], the IC50 rises from 46 nM to 110 nM (2.4-fold). The first is the more potent here.

Going from `COc1ccn2c(=O)c(-c3cc4ccccc4o3)c(C(F)(F)F)nc2c1` [Example 1-7, 3-(1-benzofuran-2-yl)-8-methoxy-2-(trifluoromethyl)-4H-pyrido[1,2-a]pyrimidin-4-one] to `COc1ccn2c(=O)c(-c3cnn(-c4cccc(F)c4)c3)c(C(F)(F)F)nc2c1` [Example 1-18, 3-(1-(3-fluorophenyl)-1H-pyrazol-4-yl)-8-methoxy-2-(trifluoromethyl)-4H-pyrido[1,2-a]pyrmidin-4-one], the IC50 falls from 85.2 nM to 25.2 nM (3.4-fold).

First: COc1ccn2c(=O)c(-c3ccc(OCC(F)(F)F)c(F)c3)c(C(F)F)nc2c1 [Example 1-12, 2-(difluoromethyl)-3-(3-fluoro-4-(2,2,2-trifluoroethoxy)phenyl)-8-methoxy-4H-pyrido[1,2-a]pyrimidin-4-one]
Second: COc1ccn2c(=O)c(-c3ccc(OCC(F)(F)F)nc3)c(C(F)F)nc2c1 [Example 1-13, 2-(difluoromethyl)-8-methoxy-3-(6-(2,2,2-trifluoroethoxy)-3-pyridinyl)-4H-pyrido[1,2-a]pyrimidin-4-one]
The IC50 of the first is 3.5-fold lower: 9.9 nM for the first, 34.2 nM for the second. The first is the more potent here.

First: COc1ccn2c(=O)c(-c3cnn(CCC(F)(F)F)c3)c(C(F)F)nc2c1 [Example 1-14, 2-(difluoromethyl)-8-methoxy-3-(1-(3,3,3-trifluoropropyl)-1H-pyrazol-4-yl)-4H-pyrido[1,2-a]pyrimidin-4-one]
Second: COc1ccn2c(=O)c(-c3cnn(CCCC(F)(F)F)c3)c(C(F)F)nc2c1 [Example 1-16, 2-(difluoromethyl)-8-methoxy-3-(1-(4,4,4-trifluorobutyl)-1H-pyrazol-4-yl)-4H-pyrido[1,2-a]pyrimidin-4-one]
The IC50 of the first is 17-fold lower: 22.9 nM for the first, 383 nM for the second. The first is the more potent here.

First: COc1ccn2c(=O)c(-c3cnn(-c4ccc(F)cc4)c3)c(C(F)(F)F)nc2c1 [Example 1-17, 3-(1-(4-fluorophenyl)-1H-pyrazol-4-yl)-8-methoxy-2-(trifluoromethyl)-4H-pyrido[1,2-a]pyrimidin-4-one]
Second: O=c1c(-c2cnn(-c3ccc(F)cc3)c2)c(C(F)(F)F)nc2ccccn12 [Example 1-46, 3-(1-(4-fluorophenyl)-1H-pyrazol-4-yl)-2-(trifluoromethyl)-4H-pyrido[1,2-a]pyrimidin-4-one]
The IC50 of the first is 2.6-fold lower: 13.9 nM for the first, 36.4 nM for the second. The first is the more potent here.

Compared with `O=C(O)c1ccn2c(=O)c(-c3cnn(CC(F)(F)C(F)(F)F)c3)c(C(F)(F)F)nc2c1` [Example 1-21, 4-oxo-3-(1-(2,2,3,3,3-pentafluoropropyl)-1H-pyrazol-4-yl)-2-(trifluoromethyl)-4H-pyrido[1,2-a]pyrimidine-8-carboxylic acid], `CSc1ccn2c(=O)c(-c3cnn(CC(F)(F)C(F)(F)F)c3)c(C(F)(F)F)nc2c1` [Example 1-30, 8-(methylsulfanyl)-3-(1-(2,2,3,3,3-pentafluoropropyl)-1H-pyrazol-4-yl)-2-(trifluoromethyl)-4H-pyrido[1,2-a]pyrimidin-4-one] is 180-fold lower in IC50: 3390 nM for the first, 18.8 nM for the second. The second is the more potent here.

Going from `COc1ccn2c(=O)c(-c3cnn(CCC#N)c3)c(C(F)(F)F)nc2c1` [Example 1-24, 3-(4-(8-methoxy-4-oxo-2-(trifluoromethyl)-4H-pyrido[1,2-a]pyrimidin-3-yl)-1H-pyrazol-1-yl)propanenitrile] to `COc1ccn2c(=O)c(-c3cnn(CC#N)c3)c(C(F)(F)F)nc2c1` [Example 1-26, (4-(8-methoxy-4-oxo-2-(trifluoromethyl)-4H-pyrido[1,2-a]pyrimidin-3-yl)-1H-pyrazol-1-yl)acetonitrile], the IC50 falls from 833 nM to 278 nM (3-fold).

Compared with `CC(=O)c1ccn2c(=O)c(-c3ccc(OCC(F)(F)F)cc3)c(C(F)(F)F)nc2c1` [Example 1-25, 8-acetyl-3-(4-(2,2,2-trifluoroethoxy)phenyl)-2-(trifluoromethyl)-4H-pyrido[1,2-a]pyrimidin-4-one], `CC(=O)Nc1ccn2c(=O)c(-c3ccc(OCC(F)(F)F)cc3)c(C(F)(F)F)nc2c1` [Example 1-31, N-(4-oxo-3-(4-(2,2,2-trifluoroethoxy)phenyl)-2-(trifluoromethyl)-4H-pyrido[1,2-a]pyrimidin-8-yl)acetamide] is 270-fold higher in IC50: 6.4 nM for the first, 1720 nM for the second.

Compared with `CN(C)c1ccn2c(=O)c(-c3ccc(OCC(F)(F)F)cc3)c(C(F)(F)F)nc2c1` [Example 1-28, 8-(dimethylamino)-3-(4-(2,2,2-trifluoroethoxy)phenyl)-2-(trifluoromethyl)-4H-pyrido[1,2-a]pyrimidine-4-one], `CC(C)c1ccn2c(=O)c(-c3ccc(OCC(F)(F)F)cc3)c(C(F)(F)F)nc2c1` [Example 1-32, 8-(2-propanyl)-3-(4-(2,2,2-trifluoroethoxy)phenyl)-2-(trifluoromethyl)-4H-pyrido[1,2-a]pyrimidin-4-one] is 9.7-fold higher in IC50: 43.5 nM for the first, 421 nM for the second. The first is the more potent here.

First: COc1ccn2c(=O)c(-c3cnn(CCCC(F)(F)F)c3)c(C(F)(F)F)nc2n1 [Example 1-38, 8-methoxy-3-(1-(4,4,4-trifluorobutyl)-1H-pyrazol-4-yl)-2-(trifluoromethyl)-4H-pyrimido[1,2-a]pyrimidin-4-one]
Second: COc1cc2nc(C(F)(F)F)c(-c3cnn(CC(F)(F)C(F)(F)F)c3)c(=O)n2cc1Cl [Example 1-45, 7-chloro-8-methoxy-3-[1-(2,2,3,3,3-pentafluoropropyl)-1H-pyrazol-4-yl]-2-(trifluoromethyl)-4H-pyrido[1,2-a]pyrimidin-4-one]
The IC50 of the first is 2.1-fold higher: 180 nM for the first, 86.1 nM for the second.

Compared with `COc1ccn2c(=O)c(-c3ccc(OCC#N)cc3)c(C(F)(F)F)nc2n1` [Example 1-40, (4-(8-methoxy-4-oxo-2-(trifluoromethyl)-4H-pyrimido[1,2-a]pyrimidin-3-yl)phenoxy)acetonitrile], `COc1ccn2c(=O)c(-c3ccc(OC(F)(F)F)cc3)c(C(F)(F)F)nc2c1` [Example 1-49, 8-methoxy-3-(4-(trifluoromethoxy)phenyl)-2-(trifluoromethyl)-4H-pyrido[1,2-a]pyrimidin-4-one] is 3.4-fold lower in IC50: 18.6 nM for the first, 5.4 nM for the second. The second is the more potent here.

Compound `O=c1c(-c2cnn(-c3ccccc3)c2)c(C(F)(F)F)nc2ccccn12` [Example 1-43, 3-(1-phenyl-1H-pyrazol-4-yl)-2-(trifluoromethyl)-4H-pyrido[1,2-a]pyrimidin-4-one] has an IC50 of 45.6 nM.
